In publication PMC3514216, “SRC Homology 2 Domain Binding Sites in Insulin, IGF-1 and FGF receptor mediated signaling networks reveal an extensive potential interactome” (Cell Communication and Signaling : CCS, 2012):
Residue numbers refer to the chain shown, from its start.

Columns and labels:
Nck1 SH2 domain [1] = target: T1, Nck1 SH2 domain (Homo sapiens, UniProt P16333); assay: SPOT peptide array; assay type: binding; details: GST-SH2 0.25 μM, membrane-bound peptide, 1 mM DTT, LiCor read-out
Summary of the method: (§1)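 Semi-quantitative binding scored against the membrane average: positive above 3× mean, negative below mean. Probe was a GST–SH2 fusion on SPOT arrays of pTyr 11-mers, detected with anti-GST antibody plus near-infrared secondary.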

Nck1 SH2 domain [2] = target: T1, Nck1 SH2 domain; design: method as in PMID 16636066; details: peptide similar to the TIR10 peptide (EHIpYDEVAAD); read-out: Affinity (KD); cited from earlier work
Crk SH2 domain [3] = target: T2, Crk SH2 domain (Homo sapiens, UniProt P46108); assay: SPOT peptide array; assay type: binding; details: GST-SH2 0.25 μM, membrane-bound peptide, 1 mM DTT, LiCor read-out
Summary of the method: as §1

Hck SH2 domain = assay: SPOT peptide array; assay type: binding; details: GST-SH2 0.25 μM, membrane-bound peptide, 1 mM DTT, LiCor read-out
Summary of the method: as §1

panel of 50 SH2 domains = assay: SPOT peptide array probed with each of 50 GST-SH2 domains; assay type: binding; details: SH2 domains with intensity >3X array mean; GST-SH2 0.25 μM, 1 mM DTT
Summary of the method: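 Each GST-fused SH2 domain was overlaid on 192 membrane-synthesized pTyr peptides (11-mers, 4 N-terminal and 6 C-terminal flanking residues) and read with anti-GST and near-infrared secondary antibodies. Binding called relative to membrane mean intensity (>3× positive, <1× negative); GST-only probes defined nonspecific peptides.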

Grb2 SH2 domain = Grb2 SH2 domain (Homo sapiens, UniProt P62993); design: method as in earlier work; details: SH2 protein microarray; N.B. = non binding; read-out: Protein Microarray (Macbeath) – KD; cited from earlier work
Abl1 SH2 domain = target: T3, Abl1 SH2 domain (Homo sapiens, UniProt P00519); design: method as in earlier work; details: SH2 protein microarray; N.B. = non binding; read-out: Protein Microarray (Macbeath) – KD; cited from earlier work
T3 sequence (P00519 127-217 limits assumed): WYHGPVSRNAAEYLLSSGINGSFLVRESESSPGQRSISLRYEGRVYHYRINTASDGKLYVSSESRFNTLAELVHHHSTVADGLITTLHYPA

Abl2 SH2 domain = target: T4, Abl2 SH2 domain (Homo sapiens, UniProt P42684); design: method as in earlier work; details: SH2 protein microarray; N.B. = non binding; read-out: Protein Microarray (Macbeath) – KD; cited from earlier work
T4 sequence (P42684 173-263 limits assumed): T3 sequence (P00519 127-217 limits assumed) with N9S, G18L, R35L, A53T, S54A, L58V, S61T, S62A, N67S, I84V

CrkL SH2 domain = CrkL SH2 domain (Homo sapiens, UniProt P46109); design: method as in earlier work; details: SH2 protein microarray; N.B. = non binding; read-out: Protein Microarray (Macbeath) – KD; cited from earlier work
Crk SH2 domain [4] = target: T2, Crk SH2 domain; assay: Fluorescence polarization solution binding; details: Rhodamine B-labeled peptide, GST-SH2, Beacon 2000, read-out: Affinity (KD)
Description: (§2) To verify the binding results obtained from addressable peptide arrays we employed an orthogonal method of determining SH2 interactions with peptide ligands. We measured the dissociation constants of 60 binary SH2-peptide pairs in solution by fluorescence polarization (Table 2, Additional file 2: Figures S3A-C).
(§3) Peptides were synthesized using FMOC-chemistry onto pre-loaded tenta-gel resins. Peptides were then labeled with Rhodamine B (Abbey Color) and then cleaved using trifluoroacetic acid. Peptides were lyophilized and then purified using a LC/MS (Agilent 2100). Dissociation constants were measured using the Beacon 2000 (Invitrogen) as previously described.
(§4) Binding Affinities determined by Fluorescence Polarization. Rhodamine B-labeled peptides were mixed with varying concentrations of GST-tagged SH2 domains. Fluorescence polarization measurements were read on a Beacon 2000 (Invitrogen). The curves were fit to a Michaelis-Menten equation to calculate the dissociation constant, KD. […] (C) Affinity measurements that fell below the 2X mean intensity and were considered array negative on the SPOT array.

PI3K1_N SH2 domain = PI3K1_N SH2 domain (Homo sapiens, UniProt P27986); assay: Fluorescence polarization solution binding; details: Rhodamine B-labeled peptide, GST-SH2, Beacon 2000, read-out: Affinity (KD)
Description: as §2, §3, §4

Ptpn11_N SH2 domain = target: T5, Ptpn11_N SH2 domain (Homo sapiens, UniProt Q06124); assay: Fluorescence polarization solution binding; details: Rhodamine B-labeled peptide, GST-SH2, Beacon 2000, read-out: Affinity (KD)
T5 sequence (Q06124 6-102 limits assumed): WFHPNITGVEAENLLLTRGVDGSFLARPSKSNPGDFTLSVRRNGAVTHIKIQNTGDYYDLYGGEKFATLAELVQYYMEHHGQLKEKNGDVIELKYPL
Description: as §2, §3, §4

Plcg2_C SH2 domain = Plcg2_C SH2 domain (Homo sapiens, UniProt P16885); assay: Fluorescence polarization solution binding; details: Rhodamine B-labeled peptide, GST-SH2, Beacon 2000, read-out: Affinity (KD)
Description: as §2
As noted above, this study performs well in terms of reproducing the literature reported interactions between the 50 SH2 domains tested and the 13 proteins represented on the addressable arrays (Table 1). A handful of differences with literature-reported interactions must, by necessity, be reconciled. Our assumption is that a high-throughput (HTP) study such as this one should capture upwards of 85% of known (literature reported) interactions and that results that differ from low throughput studies described in the literature should be subject to further testing to identify the nature of the discrepancy and reveal any weakness in the HTP dataset. […] For instance, FGFR1 Y-766 (SNQEpYLDLSMP) is reported to bind to PLCγ1 in a pTyr dependant manner based on mutational analysis of FGFR1 [55, 56]. […] This may imply that either this is a binding event specific to PLCγ1 (and not PLCγ2), or that the interaction reported at the level of the full-length protein may be more complex, perhaps requiring secondary contact sites that are not available within the context of the short peptide used in the current study. […] We have made an effort to limit false negatives to those of lower affinity, and we are aware of no instance in our dataset of a sub-micromolar affinity interaction being scored as array-negative.
Peptides were synthesized using FMOC-chemistry onto pre-loaded tenta-gel resins. […] Dissociation constants were measured using the Beacon 2000 (Invitrogen) as previously described.
Binding Affinities determined by Fluorescence Polarization. […] Fluorescence polarization measurements were read on a Beacon 2000 (Invitrogen). […]

Bmx SH2 domain = assay: SPOT peptide array; assay type: binding; details: GST-SH2 0.25 μM, membrane-bound peptide, 1 mM DTT, LiCor read-out
Summary of the method: as §1

Src SH2 domain [5] = target: T6, Src SH2 domain (Homo sapiens, UniProt P12931); assay: SPOT peptide array; assay type: binding; details: GST-SH2 0.25 μM
Summary of the method: as §1

Lck SH2 domain = assay: SPOT peptide array; assay type: binding; details: GST-SH2 0.25 μM
Src SH2 domain [6] = target: T6, Src SH2 domain; design: method as in 2 sources, ref [19] = [19]; PMID 7680959; doi:10.1016/0092-8674(93)90404-e; Songyang Z Shoelson SE Chaudhuri M Gish G Pawson T Haser WG King F Roberts T Ratnofsky S Lechleider RJ SH2 domains recognize specific phosphopeptide sequences Cell 1993 72 767 778 7680959 10.1016/0092 ||| ref [119, 121] = [119]; PMID 9032297; doi:10.1128/mcb.17.3.1702; Schlaepfer DD Broome MA Hunter T Fibronectin-stimulated signaling from a focal adhesion kinase-c-Src complex: involvement of the Grb2, p130cas, and Nck adaptor proteins Mol Cell Biol 1997 17 1702 1713 || [121]; PMID 16245368; doi:10.1002/jmr.755; Nasertorabi F Tars K Becherer K Kodandapani R Liljas L Vuori K Ely KR Molecular basis for regulation of Src by the docking protein p130Cas J Mol Recognit 2006 19 30 38 16245368 10.1002/jmr.755; details: read-out: Affinity (KD); cited from earlier work
[7] = membrane-bound peptide, 1 mM DTT, LiCor read-out
[8] = spot intensity as factor of array mean

T2 sequence (P46108 13-118 limits assumed): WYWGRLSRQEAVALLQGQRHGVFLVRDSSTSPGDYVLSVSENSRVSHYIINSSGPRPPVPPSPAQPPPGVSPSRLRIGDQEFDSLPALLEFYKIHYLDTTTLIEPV
Sequence of Plcg2_C SH2 domain (P16885 646-735 limits assumed): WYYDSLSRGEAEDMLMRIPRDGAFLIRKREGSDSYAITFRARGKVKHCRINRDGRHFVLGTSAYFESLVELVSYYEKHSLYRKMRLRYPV
Sequence of PI3K1_N SH2 domain (P27986 333-428 limits assumed): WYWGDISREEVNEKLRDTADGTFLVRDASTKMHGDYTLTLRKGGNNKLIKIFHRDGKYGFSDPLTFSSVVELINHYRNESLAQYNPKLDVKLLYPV
Sequence of Grb2 SH2 domain (P62993 60-152 limits assumed): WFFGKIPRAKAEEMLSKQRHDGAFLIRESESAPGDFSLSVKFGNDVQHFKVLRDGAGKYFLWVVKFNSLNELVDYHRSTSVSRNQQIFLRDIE
Sequence of CrkL SH2 domain (P46109 14-102 limits assumed): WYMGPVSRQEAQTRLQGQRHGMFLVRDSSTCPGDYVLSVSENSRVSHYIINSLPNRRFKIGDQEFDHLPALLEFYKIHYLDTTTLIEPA

In the case of “GLDEpYDEVPMP [11-mer phosphotyrosine control peptide, B3AT (Y921), similar to the TIR10 peptide, reference compound]”, the Array positive (Nck1 SH2 domain [1]) is listed as “Yes (Array-positive binding was ascribed to interactions with intensities greater than three times the array mean)” and the Kd (Nck1 SH2 domain [2]) is listed as 0.06 µM.
In the case of “EDDGpYDVPKPP [11-mer phosphotyrosine control peptide, Cbl (Y774), reference compound]”, the Array positive (Crk SH2 domain [3]) is reported as “Yes (Array-positive binding was ascribed to interactions with intensities greater than three times the array mean)”, the Array positive (Hck SH2 domain) is reported as “Yes (Array-positive binding was ascribed to interactions with intensities greater than three times the array mean)” and the “Other SH2 domains bound (additional array-positive SH2 domains)” value (panel of 50 SH2 domains) is reported as “Crkl and Fgr, Src, Yes”.
In the case of “QARRPPGLEpYCYNPSHND* (QARRPPGLEYCYNPSHND) [FGFR1 Y583 phosphopeptide; Cys replaced with Ala or Ser on peptide arrays]”, the Kd (Grb2 SH2 domain) is listed as 1.62 µM, the Kd (Abl1 SH2 domain) is listed as 1.8 µM and the Kd (Abl2 SH2 domain) is listed as 0.34 µM. The Kd (CrkL SH2 domain) was 1.55 µM.
For `CC[C@H](C)[C@H](NC(=O)[C@H](CC(N)=O)NC(=O)[C@@H](NC(=O)[C@H](Cc1ccc(OP(=O)(O)O)cc1)NC(=O)[C@H](CCC(=O)O)NC(=O)CNC(=O)[C@@H]1CCCN1C(=O)[C@@H](N)CO)C(C)C)C(=O)N[C@@H](CCC(=O)O)C(=O)N[C@@H](Cc1ccccc1)C(=O)NCC(=O)O` [SPGEpYVNIEFG], the Kd (Crk SH2 domain [4]) was > 20 µM, the Kd (PI3K1_N SH2 domain) was 2.68 µM and the Kd (Ptpn11_N SH2 domain) was 2.08 µM. The Kd (Plcg2_C SH2 domain) was 2.92 µM.
In the case of “WMEDpYDYVHLQ [11-mer phosphotyrosine peptide, p130Cas (Y664)]”, the Array positive (Bmx SH2 domain) is reported as “Yes (Array-positive binding was ascribed to interactions with intensities greater than three times the array mean)”, the Array positive (Nck1 SH2 domain [1]) is reported as “Yes (Array-positive binding was ascribed to interactions with intensities greater than three times the array mean)” and the Array positive (Src SH2 domain [5]; [7]) is reported as “No (Peptide spots with average intensity values between 1X-3X the array mean were defined as ‘indeterminate’. Those with intensities below 1X mean were defined as array negative)”. For the same molecule, the “Peptide array intensity (X mean)” value (Src SH2 domain [5]; [8]) was 2.45 X Mean, the Array positive (Lck SH2 domain; [7]) was “No (Peptide spots with average intensity values between 1X-3X the array mean were defined as ‘indeterminate’. Those with intensities below 1X mean were defined as array negative)” and the “Peptide array intensity (X mean)” value (Lck SH2 domain; [8]) was 2.03 X Mean. For the same molecule, the “Other SH2 domains bound (additional array-positive SH2 domains)” value (panel of 50 SH2 domains) was “Bcar3, Brk, Crk, Crkl, Dapp1, Fer, Grb7, Matk, PI3K1_N, Rasa1_N, Rasa1_C, Sh3bp2 and Itk” and the Kd (Src SH2 domain [6]) was 0.025 to 0.046 µM.
